molecular target: T1, EBP (Homo sapiens, UniProt Q15125); assay: EBP Functional Assay (EBP immunoaffinity LC-MS assay); type: biochemical; conditions: HEK293T cells as source of EBP enzyme; 30 min with inhibitor, then zymosterol-d5, 37° C. for 4 h; percent conversion by LC-APCI MRM MS
T1 construct: HEK293T cells were utilized as the source of EBP enzyme; endogenous in cells; host or cells: HEK293T
Protocol: The EBP immunoaffinity (IA) LC-MS assay measures the potency of small molecule inhibitors of EBP by quantifying their concentration-dependent changes in the enzyme's substrate and product using liquid chromatography atmospheric pressure chemical ionization multiple reaction monitoring mass spectrometry (LC-APCI MRM MS). HEK293T cells were utilized as the source of EBP enzyme. The enzyme was incubated with the small molecule inhibitors at variable concentrations for 30 min. Deuterated form of EBP substrate, zymosterol-d5 (Avanti Polar Lipids, Cat #700068P-1 mg), was then added and the plate was incubated at 37° C. for 4 h. Finally, the sterol isomers were extracted and injected to LC-APCI MRM MS. MRM transition used for the quantification for both zymosterol and dihydrolathosterol (substrate and product of EBP enzymatic reaction, respectively) is 372.3-203.2, CE 30 and DP 80 in positive ion mode. Percent conversion of the zymosterol-d5 to dehydrolathosterol-d5 was used to derive IC50 curves. Tasin-1 (1′-[(4-Methoxyphenyl)sulfonyl]-4-methyl-1,4′-bipiperidine, CAS 792927-06-1) was used as the reference small molecule inhibitor. Percent conversion versus the compound concentration data were fit to the following 4-parameter logistic model to generate IC50 curves: […]

T1 sequence (Q15125 whole entry): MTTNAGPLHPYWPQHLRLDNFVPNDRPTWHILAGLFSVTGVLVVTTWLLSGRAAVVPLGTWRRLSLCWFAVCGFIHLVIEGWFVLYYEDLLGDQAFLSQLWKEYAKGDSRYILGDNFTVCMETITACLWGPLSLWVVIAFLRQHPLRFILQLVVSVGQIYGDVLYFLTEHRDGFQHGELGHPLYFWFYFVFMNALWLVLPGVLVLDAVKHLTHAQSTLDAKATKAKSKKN

Compound | IC50 [µM]
O=S(=O)(c1c(F)cc(OC(F)F)cc1F)N1[C@@H]2CC[C@H]1C[C@H](CN1CCOCC1)C2 [Example 35, 4-(((1R,3s,5S)-8-((4-(Difluoromethoxy)-2,6-difluorophenyl)sulfonyl)-8-azabicyclo[3.2.1]octan-3-yl)methyl)morpholine] | < 0.05
CC1(O)CCN(C2CC3CCC(C2)N3S(=O)(=O)c2ccc(OC(F)F)cc2)C1 (centres unmarked) [Example 49, 1-(8-((4-(Difluoromethoxy)phenyl)sulfonyl)-8-azabicyclo[3.2.1]octan-3-yl)-3-methylpyrrolidin-3-ol] | 0.05 to 0.15
Cc1nn(C)c2ncc(S(=O)(=O)N3[C@@H]4CC[C@H]3C[C@H](N3CCC(C)CC3)C4)cc12 [Example 45, 1,3-Dimethyl-5-(((1R,3s,5S)-3-(4-methylpiperidin-1-yl)-8-azabicyclo[3.2.1]octan-8-yl)sulfonyl)-1H-pyrazolo[3,4-b]pyridine] | 0.15 to 2
CC1CCN([C@@H]2C[C@H]3CC[C@@H](C2)N3S(=O)(=O)c2ccc(OC(F)F)cc2)CC1 [Example 21, (1R,3s,5S)-8-((4-(difluoromethoxy)phenyl)sulfonyl)-3-(4-methylpiperidin-1-yl)-8-azabicyclo[3.2.1]octane] | < 0.05
COc1nc(C)ccc1S(=O)(=O)N1[C@@H]2CC[C@H]1C[C@H](N1CCC(C)CC1)C2 [Example 3, (1R,3s,5S)-8-((2-Methoxy-6-methylpyridin-3-yl)sulfonyl)-3-(4-methylpiperidin-1-yl)-8-azabicyclo[3.2.1]octane] | < 0.05
CC1CCN([C@@H]2C[C@H]3CC[C@@H](C2)N3S(=O)(=O)c2ccc3c(c2)COCC3)CC1 [Example 7, (1R,3s,5S)-8-(Isochroman-7-ylsulfonyl)-3-(4-methylpiperidin-1-yl)-8-azabicyclo[3.2.1]octane] | < 0.05
CC1(CN[C@@H]2C[C@H]3CC[C@@H](C2)N3S(=O)(=O)c2ccc(OC(F)F)cc2)COC1 [Example 28, (1R,3s,5S)-8-((4-(Difluoromethoxy)phenyl)sulfonyl)-N-((3-methyloxetan-3-yl)methyl)-8-azabicyclo[3.2.1]octan-3-amine] | < 0.05
Cc1cc(S(=O)(=O)N2[C@@H]3CC[C@H]2C[C@@H](CN2CCOCC2)C3)n(C)n1 [Example 37, 4-(((1R,3r,5S)-8-((1,3-Dimethyl-1H-pyrazol-5-yl)sulfonyl)-8-azabicyclo[3.2.1]octan-3-yl)methyl)morpholine] | < 0.05
Cc1cnc(S(=O)(=O)N2[C@@H]3CC[C@H]2C[C@H](N2CCC(C)CC2)C3)c(C)c1 [Example 46, (1R,3s,5S)-8-((3,5-Dimethylpyridin-2-yl)sulfonyl)-3-(4-methylpiperidin-1-yl)-8-azabicyclo[3.2.1]octane] | 0.15 to 2
Cc1nc(C(F)(F)F)ccc1S(=O)(=O)N1[C@@H]2CC[C@H]1C[C@H](NCC1CCOCC1)C2 (single isomer, unassigned) [Example 24] | < 0.05
CC1CCN([C@H]2C[C@H]3CC[C@@H](C2)N3S(=O)(=O)c2cnc(C3CCOCC3)o2)CC1 [Example 2, 5-(((1R,3r,5S)-3-(4-Methylpiperidin-1-yl)-8-azabicyclo[3.2.1]octan-8-yl)sulfonyl)-2-(tetrahydro-2H-pyran-4-yl)oxazole] | < 0.05
O=S(=O)(c1ccc(OC(F)F)cc1)N1[C@@H]2CC[C@H]1C[C@](O)(CN1CCOCC1)C2 [Example 33, (1R,3r,5S)-8-((4-(Difluoromethoxy)phenyl)sulfonyl)-3-(morpholinomethyl)-8-azabicyclo[3.2.1]octan-3-ol] | < 0.05
Cc1ccc(S(=O)(=O)N2[C@@H]3CC[C@H]2C[C@H](N2CCC(C)CC2)C3)c(C)n1 [Example 47, (1R,3s,5S)-8-((2,6-Dimethylpyridin-3-yl)sulfonyl)-3-(4-methylpiperidin-1-yl)-8-azabicyclo[3.2.1]octane] | 0.05 to 0.15
CC1CCN([C@@H]2C[C@H]3CC[C@@H](C2)N3S(=O)(=O)c2ccc3c(c2)CC(C)(C)C(=O)N3)CC1 [Example 5, 3,3-Dimethyl-6-(((1R,3s,5S)-3-(4-methylpiperidin-1-yl)-8-azabicyclo[3.2.1]octan-8-yl)sulfonyl)-3,4-dihydroquinolin-2(1H)-one] | < 0.05
O=S(=O)(c1ccc(OC(F)F)cc1)N1[C@@H]2CC[C@H]1C[C@@](O)(CN1CCOCC1)C2 [Example 34, (1R,3s,5S)-8-((4-(Difluoromethoxy)phenyl)sulfonyl)-3-(morpholinomethyl)-8-azabicyclo[3.2.1]octan-3-ol] | 0.05 to 0.15
Cc1cnn(C)c1S(=O)(=O)N1[C@@H]2CC[C@H]1C[C@H](N1CCC(C)CC1)C2 [Example 12, (1R,3s,5S)-8-((1,4-Dimethyl-1H-pyrazol-5-yl)sulfonyl)-3-(4-methylpiperidin-1-yl)-8-azabicyclo[3.2.1]octane] | < 0.05
COCc1ccc(S(=O)(=O)N2[C@@H]3CC[C@H]2C[C@H](N2CCC(C)CC2)C3)o1 [Example 8, (1R,3s,5S)-8-((5-(Methoxymethyl)furan-2-yl)sulfonyl)-3-(4-methylpiperidin-1-yl)-8-azabicyclo[3.2.1]octane] | < 0.05
CC1CCN([C@@H]2C[C@H]3CC[C@@H](C2)N3S(=O)(=O)c2cnc(C3CCOCC3)o2)CC1 [Example 6, 5-(((1R,3s,5S)-3-(4-Methylpiperidin-1-yl)-8-azabicyclo[3.2.1]octan-8-yl)sulfonyl)-2-(tetrahydro-2H-pyran-4-yl)oxazole] | < 0.05
O=S(=O)(c1ccc(OC(F)F)cc1)N1C2CCC1CC(NCC1CCOCC1)C2 (centres unmarked) [Example 19, 8-((4-(Difluoromethoxy)phenyl)sulfonyl)-N-((tetrahydro-2H-pyran-4-yl)methyl)-8-azabicyclo[3.2.1]octan-3-amine] | < 0.05
COCn1ncc(Cl)c1S(=O)(=O)N1[C@@H]2CC[C@H]1C[C@H](N1CCC(C)CC1)C2 [Example 4, (1R,3s,5S)-8-((4-Chloro-1-(methoxymethyl)-1H-pyrazol-5-yl)sulfonyl)-3-(4-methylpiperidin-1-yl)-8-azabicyclo[3.2.1]octane] | < 0.05
CC1CCN([C@@H]2C[C@H]3CC[C@@H](C2)N3S(=O)(=O)c2cc(-c3ccccc3)n[nH]2)CC1 [Example 10, (1R,3s,5S)-3-(4-Methylpiperidin-1-yl)-8-((3-phenyl-1H-pyrazol-5-yl)sulfonyl)-8-azabicyclo[3.2.1]octane] | < 0.05

The remaining lines, values ahead:

IC50 [µM] | Compound
< 0.05 | COCCC(C)NC1CC2CCC(C1)N2S(=O)(=O)c1ccc(OC(F)F)cc1 (centres unmarked) [Example 52, 8-((4-(Difluoromethoxy)phenyl)sulfonyl)-N-(4-methoxybutan-2-yl)-8-azabicyclo[3.2.1]octan-3-amine]
0.05 to 0.15 | O=S(=O)(c1ccc(OC(F)F)cc1)N1C2CCC1CC(N1C3CCCC1CC3)C2 (centres unmarked) [Example 53, 8-((4-(Difluoromethoxy)phenyl)sulfonyl)-8,8′-diaza-3,8′-bi(bicyclo[3.2.1]octane)]
< 0.05 | O=S(=O)(c1ccc(OC(F)F)cc1)N1C2CCC1CC(N1CC3CCC(C3)C1)C2 (centres unmarked) [Example 58, 8′-((4-(Difluoromethoxy)phenyl)sulfonyl)-3,8′-diaza-3,3′-bi(bicyclo[3.2.1]octane)]
0.15 to 2 | O=S(=O)(c1ccc(OC(F)F)cc1)N1[C@@H]2CC[C@H]1C[C@@H](NCC1(F)COC1)C2 (single isomer, unassigned) [Example 71]
0.15 to 2 | Cc1nc(C(F)(F)F)ccc1S(=O)(=O)N1[C@@H]2CC[C@H]1C[C@H](NC1CCOCC1)C2 [Example 75, (1R,3s,5S)-8-((2-Methyl-6-(trifluoromethyl)pyridin-3-yl)sulfonyl)-N-(tetrahydro-2H-pyran-4-yl)-8-azabicyclo[3.2.1]octan-3-amine]
0.05 to 0.15 | Cc1nc(C(F)(F)F)ccc1S(=O)(=O)N1[C@@H]2CC[C@H]1C[C@@H](NC1CC3(COC3)C1)C2 (single isomer, unassigned) [Example 69]
0.05 to 0.15 | O=S(=O)(c1ccc(OC(F)F)cc1)N1C2CCC1CC(NCC1CC(O)C1)C2 (single isomer, unassigned) [Example 61]
0.05 to 0.15 | CC(O)CCN[C@H]1C[C@H]2CC[C@@H](C1)N2S(=O)(=O)c1ccc(OC(F)F)cc1 (mixture of isomers) [Example 59, rac-4-(((1R,3r,5S)-8-((4-(difluoromethoxy)phenyl)sulfonyl)-8-azabicyclo[3.2.1]octan-3-yl)amino)butan-2-ol]
< 0.05 | CN(C1CCOCC1)[C@H]1C[C@H]2CC[C@@H](C1)N2S(=O)(=O)c1ccc(OC(F)F)cc1 [Example 65, (1R,3r,5S)-8-((4-(difluoromethoxy)phenyl)sulfonyl)-N-methyl-N-(tetrahydro-2H-pyran-4-yl)-8-azabicyclo[3.2.1]octan-3-amine]
0.15 to 2 | O=S(=O)(c1ccc(OC(F)F)cc1)N1C2CCC1CC(NC[C@H]1C[C@H]1CO)C2 (mixture of isomers) [Example 56, rac-((1R,2S)-2-(((8-((4-(Difluoromethoxy)phenyl)sulfonyl)-8-azabicyclo[3.2.1]octan-3-yl)amino)methyl)cyclopropyl)methanol]
0.05 to 0.15 | CC(C)(O)CN[C@H]1C[C@H]2CC[C@@H](C1)N2S(=O)(=O)c1ccc(OC(F)F)cc1 [Example 77, 1-(((1R,3r,5S)-8-((4-(Difluoromethoxy)phenyl)sulfonyl)-8-azabicyclo[3.2.1]octan-3-yl)amino)-2-methylpropan-2-ol]

— patent US20250161281A1, “EMOPAMIL-BINDING PROTEIN INHIBITORS AND USES THEREOF” (BIOGEN MA INC., priority 2022, published 2025)
